Here are results for 40 molecules from US7989451B2, “Tricyclic 1,2,4-triazine oxides and compositions for therapeutic use in cancer treatments” (Auckland Uniservices Limited, priority 2005, dated 2011).

Broadly, the melting point is the temperature of the solid-liquid transition. `CC1Cc2cc3nc(NCCN(C)C)n[n+]([O-])c3cc2C1` (stereo not shown) [Compound 96, N^1,N^1-Dimethyl-N^2-(7-methyl-1 oxido-7,8-dihydro-6H-indeno[5,6-e][1,2,4]triazin-3-yl)-1,2-ethanediamine] displayed a melting point of 119 to 121 °C.

For `CC1Cc2cc3nc(NCCCN4CCOCC4)n[n+]([O-])c3cc2C1` (stereo not shown) [Compound 98, 7-Methyl-N-[3-(4-morpholinyl)propyl]-7,8-dihydro-6H-indeno[5,6-e][1,2,4]triazin-3-amine 1-Oxide], the melting point was 138 to 140 °C.

As to `CC1Cc2cc3nc(I)n[n+]([O-])c3cc2C1` (stereo not shown) [Compound 100, 3-Iodo-7-methyl-7,8-dihydro-6H-indeno[5,6-e][1,2,4]triazine 1-Oxide], the melting point was in the range of 140 to 142 °C.

`CC1Cc2cc3nc(CCCN4CCOCC4)n[n+]([O-])c3cc2C1` (stereo not shown) [Compound 102, 7-Methyl-3-[3-(4-morpholinyl)propyl]-7,8-dihydro-6H-indeno[5,6-e][1,2,4]triazine 1-Oxide] gave a melting point of 70 to 71 °C.

Consider `CN(C)C1Cc2cc3nc(N)n[n+]([O-])c3cc2C1` (stereo not shown) [Compound 111, N^7,N^7-Dimethyl-7,8-dihydro-6H-indeno[5,6-e][1,2,4]triazine-3,7-diamine 1-Oxide], for which the melting point is 212 to 216 °C.

With `CCNc1nc2cc3c(cc2[n+]([O-])n1)CC(N(C)C)C3` (stereo not shown) [Compound 113, N^3-Ethyl-N^7,N^7-dimethyl-7,8-dihydro-6H-indeno[5,6-e][1,2,4]triazine-3,7-diamine 1-Oxide], the melting point lay in the range of 187 to 190 °C.

Turning to `Nc1nc2cc3c(cc2[n+]([O-])n1)CC(CO)C3` (stereo not shown) [Compound 124, (3-Amino-1-oxido-7,8-dihydro-6H-indeno[5,6-e][1,2,4]triazin-7-yl)methanol], the melting point was in the range of 255 to 257 °C.

Molecule `CCNc1nc2cc3c(cc2[n+]([O-])n1)CC(CO)C3` (stereo not shown) [Compound 126, [3-(Ethylamino)-1-oxido-7,8-dihydro-6H-indeno[5,6-e][1,2,4]triazin-7-yl]methanol] came in with a melting point of 150 °C.

The molecule `CCNc1n[n+]([O-])c2cc3c(cc2[n+]1[O-])CC(CO)C3` (stereo not shown) [Compound 127, [3-(Ethylamino)-1,4-dioxido-7,8-dihydro-6H-indeno[5,6-e][1,2,4]triazin-7-yl]methanol] yielded a melting point of 153 to 155 °C.

For the molecule `CCc1nc2cc3c(cc2[n+]([O-])n1)CC(CO)C3` (stereo not shown) [Compound 142, (3-Ethyl-1-oxido-7,8-dihydro-6H-indeno[5,6-e][1,2,4]triazin-7-yl)methanol], the melting point is 122 to 123 °C.

`CCc1nc2cc3c(cc2[n+]([O-])n1)CC(CN1CCOCC1)C3` (stereo not shown) [Compound 143, 3-Ethyl-7-(4-morpholinylmethyl)-7,8-dihydro-6H-indeno[5,6-e][1,2,4]triazine 1-Oxide]: the melting point lay within 111 to 112 °C.

`Nc1nc2cc3c(cc2[n+]([O-])n1)CC(CCO)C3` (stereo not shown) [Compound 157, 2-(3-Amino-1-oxido-7,8-dihydro-6H-indeno[5,6-e][1,2,4]triazin-7-yl)ethanol] came in with a melting point of 230 to 235 °C.

`[O-][n+]1nc(I)nc2cc3c(cc21)CC(CCO)C3` (stereo not shown) [Compound 158, 2-(3-Iodo-1-oxido-7,8-dihydro-6H-indeno[5,6-e][1,2,4]triazin-7-yl)ethanol] registered a melting point of 96 to 99 °C.

Turning to `[O-][n+]1nc(I)nc2cc3c(cc21)CC(CCOC1CCCCO1)C3` (stereo not shown) [Compound 159, 3-Iodo-7-(2-(tetrahydro-2H-pyran-2-yloxy)ethyl)-7,8-dihydro-6H-indeno[5,6-e][1,2,4]triazine 1-Oxide], the melting point lay within 80 to 82 °C.

Turning to `CCc1nc2cc3c(cc2[n+]([O-])n1)CC(CCO)C3` (stereo not shown) [Compound 161, 2-(3-Ethyl-1-oxido-7,8-dihydro-6H-indeno[5,6-e][1,2,4]triazin-7-yl)ethanol], the melting point lay within 96 to 99 °C.

In the case of `Nc1nc2ccc3c(c2[n+]([O-])n1)CCCC3` [Compound 170, 7,8,9,10-Tetrahydronaphtho[2,1-e][1,2,4]triazin-3-amine 1-Oxide], the melting point was 271 °C (dec.).

In turn, `CN(C)CCNc1nc2ccc3c(c2[n+]([O-])n1)CCCC3` [Compound 172, N^1,N^1-Dimethyl-N^2-(1-oxido-7,8,9,10-tetrahydronaphtho[2,1-e][1,2,4]triazin-3-yl)-1,2-ethanediamine] came in with a melting point of 151 to 153 °C.

In the case of `Nc1nc2cc3c(cc2[n+]([O-])n1)CCCC3` [Compound 175, 6,7,8,9-Tetrahydronaphtho[2,3-e][1,2,4]triazin-3-amine 1-Oxide], the melting point lay within 270 to 274 °C.

The molecule `CN(C)CCNc1nc2cc3c(cc2[n+]([O-])n1)CCCC3` [Compound 177, N^1-(1-Oxido-6,7,8,9-tetrahydronaphtho[2,3-e][1,2,4]triazin-3-yl)-N^2,N^2-dimethyl-1,2-ethanediamine] returned a melting point of 149 to 151 °C.

Take `CN(C)CCNc1n[n+]([O-])c2cc3c(cc2[n+]1[O-])CCCC3` [Compound 178, N^1-(1,4-Dioxido-6,7,8,9-tetrahydronaphtho[2,3-e][1,2,4]triazin-3-yl)-N^2,N^2-dimethyl-1,2-ethanediamine]: the melting point fell in the range of 148 to 151 °C.

With `[O-][n+]1nc(NCCCN2CCOCC2)nc2cc3c(cc21)CCCC3` [Compound 179, N-[3-(4-Morpholinyl)propyl]-6,7,8,9-tetrahydronaphtho[2,3-e][1,2,4]triazin-3-amine 1-Oxide], the melting point is 115 to 116 °C.

`Nc1nc2cc3c(cc2[n+]([O-])n1)CCCCC3` [Compound 186, 7,8,9,10-Tetrahydro-6H-cyclohepta[g][1,2,4]benzotriazin-3-amine 1-Oxide] showed a melting point of 261 to 265 °C.

Regarding `CN(C)CCNc1nc2cc3c(cc2[n+]([O-])n1)CCCCC3` [Compound 188, N^1,N^1-Dimethyl-N^2-(1-oxido-7,8,9,10-tetrahydro-6H-cyclohepta[g][1,2,4]benzotriazin-3-yl)-1,2-ethanediamine], the melting point was 149 to 152 °C.

The molecule `Nc1nc2cc3c(cc2[n+]([O-])n1)OCC3` [Compound 195, 6,7-Dihydrofuro[3,2-g][1,2,4]benzotriazin-3-amine 1-Oxide] came in with a melting point of 241 to 246 °C.

In the case of `CN(C)CCNc1nc2cc3c(cc2[n+]([O-])n1)OCC3` [Compound 197, N^1,N^1-Dimethyl-N^2-(1-oxido-6,7-dihydrofuro[3,2-g][1,2,4]benzotriazin-3-yl)-1,2-ethanediamine], the melting point fell in the range of 153 to 157 °C.

The molecule `[O-][n+]1nc(NCCCN2CCOCC2)nc2cc3c(cc21)OCC3` [Compound 199, N-[3-(4-Morpholinyl)propyl]-6,7-dihydrofuro[3,2-g][1,2,4]benzotriazin-3-amine 1-Oxide] came in with a melting point of 142 to 144 °C.

In turn, `Nc1nc2cc3c(cc2[n+]([O-])n1)CCO3` [Compound 204, 7,8-Dihydrofuro[2,3-g][1,2,4]benzotriazin-3-amine 1-Oxide] returned a melting point of 293 to 296 °C.

For `[O-][n+]1nc(Cl)nc2cc3c(cc21)CCO3` [Compound 206, 3-Chloro-7,8-dihydrofuro[2,3-g][1,2,4]benzotriazine 1-Oxide], the melting point lay within 203 to 205 °C.

`CN(C)CCNc1nc2cc3c(cc2[n+]([O-])n1)CCO3` [Compound 207, N^1,N^1-Dimethyl-N^2-(1-oxido-7,8-dihydrofuro[2,3-g][1,2,4]benzotriazin-3-yl)-1,2-ethanediamine] came in with a melting point of 163 to 165 °C.

In turn, `CCN(CC)CCNc1nc2cc3c(cc2[n+]([O-])n1)CCO3` [Compound 209, N^1,N^1-Diethyl-N^2-(1-oxido-7,8-dihydrofuro[2,3-g][1,2,4]benzotriazin-3-yl)-1,2-ethanediamine] yielded a melting point of 150 to 151 °C.

As for `[O-][n+]1nc(NCCCN2CCOCC2)nc2cc3c(cc21)CCO3` [Compound 211, N-[3-(4-Morpholinyl)propyl]-7,8-dihydrofuro[2,3-g][1,2,4]benzotriazin-3-amine 1-Oxide], the melting point lay within 152 to 154 °C.

Consider `[O-][n+]1nc(I)nc2cc3c(cc21)CCO3` [Compound 213, 3-Iodo-7,8-dihydrobenzofuro[6,5-e][1,2,4]triazine 1-Oxide], for which the melting point lay in the range of 192 to 194 °C.

The molecule `O=CCCc1nc2cc3c(cc2[n+]([O-])n1)CCO3` [Compound 214, 3-(1-Oxido-7,8-dihydrofuro[2,3-g][1,2,4]benzotriazin-3-yl)propanal] had a melting point of 140 to 142 °C.

Molecule `[O-][n+]1nc(CCCN2CCOCC2)nc2cc3c(cc21)CCO3` [Compound 215, 3-[3-(4-Morpholinyl)propyl]-7,8-dihydrofuro[2,3-g][1,2,4]benzotriazine 1-Oxide] had a melting point of 96 to 99 °C.

The molecule `CN(C)CCNc1nc2cc3c(cc2[n+]([O-])n1)OCO3` [Compound 223, N^1,N^1-Dimethyl-N^2-(1-oxido[1,3]dioxolo[4,5-g][1,2,4]benzotriazin-3-yl)-1,2-ethanediamine] yielded a melting point of 192 to 194 °C.

For `Nc1nc2ccc3c(c2[n+]([O-])n1)CCCO3` [Compound 234, 9,10-Dihydro-8H-chromeno[6,5-e][1,2,4]triazin-3-amine 1-Oxide], the melting point was 275 to 279 °C (dec.).

Molecule `CN(C)CCNc1nc2ccc3c(c2[n+]([O-])n1)CCCO3` [Compound 236, N^1,N^1-Dimethyl-N^2-(1-oxido-9,10-dihydro-8H-chromeno[6,5-e][1,2,4]triazin-3-yl)-1,2-ethanediamine] displayed a melting point of 119 to 120 °C.

`Nc1nc2cc3c(cc2[n+]([O-])n1)OCCC3` [Compound 239, 7,8-Dihydro-6H-chromeno[6,7-e][1,2,4]triazin-3-amine 1-Oxide] displayed a melting point of 280 to 283 °C.

Regarding `CN(C)CCNc1nc2cc3c(cc2[n+]([O-])n1)OCCC3` [Compound 241, N^1,N^1-Dimethyl-N^2-(1-oxido-7,8-dihydro-6H-chromeno[6,7-e][1,2,4]triazin-3-yl)-1,2-ethanediamine], the melting point fell in the range of 150 to 152 °C.

In the case of `[O-][n+]1nc(NCCCN2CCOCC2)nc2cc3c(cc21)OCCC3` [Compound 243, N-[3-(4-Morpholinyl)propyl]-7,8-dihydro-6H-chromeno[6,7-e][1,2,4]triazin-3-amine 1-Oxide], the melting point is 151 to 152 °C.
